Values joined by “and” are separate entries in the source; they are usually repeats but may differ in a detail not shown here. Equal values may be shown once. Toxic doses and inconclusive results are not listed.
Tested on: P388 leukemia ip, CD2F1 mice, survival T/C
Test: NCI In Vivo Anticancer Drug Screen. Data for tumor model P388 Leukemia (intraperitoneal) in CD2F1 (CDF1) mice
Details: endpoint: median survival time, higher = longer survival
How it was run: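 Mice carrying the transplanted tumor received test compound or vehicle. Survival was recorded in each group, and the value is the treated-group measurement divided by that of the vehicle-treated control group.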

[1] = dose: 100.0 mg/kg/injection, schedule: Q04DX002 (ip), vehicle: saline with Tween-80
[2] = dose: 200.0 mg/kg/injection, schedule: Q04DX002 (ip), vehicle: saline with Tween-80
[3] = dose: 50.0 mg/kg/injection, schedule: Q01DX009 (ip), vehicle: saline with Tween-80
[4] = dose: 100.0 mg/kg/injection, schedule: Q01DX009 (ip), vehicle: saline with Tween-80
[5] = dose: 200.0 mg/kg/injection, schedule: Q01DX009 (ip), vehicle: saline with Tween-80
[6] = dose: 50.0 mg/kg/injection, schedule: Q01DX005 (ip), vehicle: saline with Tween-80
[7] = dose: 200.0 mg/kg/injection, schedule: Q01DX005 (ip), vehicle: saline with Tween-80
[8] = dose: 50.0 mg/kg/injection, schedule: Q01DX009 (ip), vehicle: Klucel (hydroxypropylcellulose) (HPC)
[9] = dose: 100.0 mg/kg/injection, schedule: Q01DX005 (ip), vehicle: saline with Tween-80
[10] = dose: 100.0 mg/kg/injection, schedule: Q01DX001 (ip), vehicle: Klucel (hydroxypropylcellulose) (HPC)
[11] = dose: 200.0 mg/kg/injection, schedule: Q01DX001 (ip), vehicle: Klucel (hydroxypropylcellulose) (HPC)
[12] = dose: 400.0 mg/kg/injection, schedule: Q01DX001 (ip), vehicle: Klucel (hydroxypropylcellulose) (HPC)
[13] = dose: 100.0 mg/kg/injection, schedule: Q01DX009 (ip), vehicle: saline
[14] = dose: 25.0 mg/kg/injection, schedule: Q04DX003 (ip), vehicle: saline with Tween-80
[15] = dose: 50.0 mg/kg/injection, schedule: Q04DX003 (ip), vehicle: saline with Tween-80
[16] = dose: 100.0 mg/kg/injection, schedule: Q04DX003 (ip), vehicle: saline with Tween-80

## Cc1csc(NC(=S)N(C)C)n1
[1]
  T/C: 103 % of control
[2]
  T/C: 101 % of control
dose: 400.0 mg/kg/injection, schedule: Q04DX002 (ip), vehicle: saline with Tween-80
  T/C: 101 % of control

## c1ccc2c(Cc3nn[nH]n3)noc2c1
[3]
  T/C: 109 % of control
[4]
  T/C: 107 % of control
[5]
  T/C: 100 % of control

## CC(C)=CCSC(N)N
dose: 7.5 mg/kg/injection, schedule: Q01DX005 (ip), vehicle: saline
  T/C: 99 % of control
dose: 15.0 mg/kg/injection, schedule: Q01DX005 (ip), vehicle: saline
  T/C: 99 % of control
dose: 30.0 mg/kg/injection, schedule: Q01DX005 (ip), vehicle: saline
  T/C: 99 % of control
dose: 60.0 mg/kg/injection, schedule: Q01DX005 (ip), vehicle: saline
  T/C: 101 % of control

## COc1ccc(NC(=O)c2ccc(C(=O)Nc3ccc(OC)cc3)cc2)cc1
dose: 50.0 mg/kg/injection, schedule: Q01DX001 (ip), vehicle: other
  T/C: 90 % of control
dose: 100.0 mg/kg/injection, schedule: Q01DX001 (ip), vehicle: other
  T/C: 95 % of control
dose: 200.0 mg/kg/injection, schedule: Q01DX001 (ip), vehicle: other
  T/C: 90 % of control
dose: 400.0 mg/kg/injection, schedule: Q01DX001 (ip), vehicle: other
  T/C: 95 % of control

## Nc1ccc([N+](=O)[O-])cc1
dose: 12.5 mg/kg/injection, schedule: Q01DX009 (ip), vehicle: distilled water + Tween-80
  T/C: 102 % of control
dose: 25.0 mg/kg/injection, schedule: Q01DX009 (ip), vehicle: distilled water + Tween-80
  T/C: 100 % of control
dose: 50.0 mg/kg/injection, schedule: Q01DX009 (ip), vehicle: distilled water + Tween-80
  T/C: 103 % of control
dose: 100.0 mg/kg/injection, schedule: Q01DX009 (ip), vehicle: distilled water + Tween-80
  T/C: 103 % of control
dose: 200.0 mg/kg/injection, schedule: Q01DX009 (ip), vehicle: distilled water + Tween-80
  T/C: 102 % of control

## COc1cc2c(cc1OC)C(CCN)=NCC2
dose: 25.0 mg/kg/injection, schedule: Q01DX009 (ip), vehicle: saline sonified
  T/C: 95 % of control
dose: 50.0 mg/kg/injection, schedule: Q01DX009 (ip), vehicle: saline sonified
  T/C: 100 % of control
dose: 100.0 mg/kg/injection, schedule: Q01DX009 (ip), vehicle: saline sonified
  T/C: 100 % of control

## c1ccc([Te][Te]c2ccccc2)cc1
[6]
  T/C: 163 % of control
[7]
  T/C: 105 % of control

## O=C1c2ccccc2C(=O)c2c(NCCO)ccc(NCCO)c21
dose: 25.0 mg/kg/injection, schedule: Q04DX002 (ip), vehicle: saline with Tween-80
  T/C: 96 % of control
dose: 50.0 mg/kg/injection, schedule: Q04DX002 (ip), vehicle: saline with Tween-80
  T/C: 91 % of control
[1]
  T/C: 95 % of control
[2]
  T/C: 90 % of control

## CSc1nc(N)c(C(=O)Nc2ccc([N+](=O)[O-])cc2)s1
[8]
  T/C: 99 % of control
dose: 100.0 mg/kg/injection, schedule: Q01DX009 (ip), vehicle: Klucel (hydroxypropylcellulose) (HPC)
  T/C: 99 % of control
dose: 200.0 mg/kg/injection, schedule: Q01DX009 (ip), vehicle: Klucel (hydroxypropylcellulose) (HPC)
  T/C: 100 % of control

## Cc1ccc(S(=O)(=O)OCCC(C)(C)C)cc1
[3]
  T/C: 106 % of control
[4]
  T/C: 107 % of control
[5]
  T/C: 111 % of control

## C=C(C)[Se]c1ccccc1
[3]
  T/C: 100 % of control and 118 % of control
[4]
  T/C: 101 % of control and 121 % of control

## O=[N+]([O-])c1cccc2c1ccc1nonc12
[6]
  T/C: 99 % of control
[9]
  T/C: 94 % of control
[7]
  T/C: 97 % of control

## CC1=CC(=N/Br)/C=CC/1=N/Br
[6]
  T/C: 108 % of control
[9]
  T/C: 100 % of control
[7]
  T/C: 99 % of control

## c1ccc(C2CO2)cc1 (configuration not stated)
[10]
  T/C: 106 % of control
[11]
  T/C: 100 % of control
[12]
  T/C: 102 % of control

## Cc1cn(CCCn2cnc3cncnc32)c(=O)[nH]c1=O
dose: 50.0 mg/kg/injection, schedule: Q01DX005 (ip), vehicle: suspension in saline
  T/C: 98 % of control
dose: 100.0 mg/kg/injection, schedule: Q01DX005 (ip), vehicle: suspension in saline
  T/C: 105 % of control
dose: 200.0 mg/kg/injection, schedule: Q01DX005 (ip), vehicle: suspension in saline
  T/C: 96 % of control

## CC1C=C(COC(=O)Nc2ccccc2)ON1c1ccccc1 (configuration not stated)
[10]
  T/C: 108 % of control
[11]
  T/C: 97 % of control
[12]
  T/C: 100 % of control

## Cc1c(O)cccc1O
[13]
  T/C: 105 % of control

## OC(CCl)Cc1ccccc1 (configuration not stated)
[14]
  T/C: 104 % of control
[15]
  T/C: 100 % of control
[16]
  T/C: 100 % of control

## O=C1CCS(=O)(=O)CC1
dose: 25.0 mg/kg/injection, schedule: Q01DX009 (ip), vehicle: saline with Tween-80
  T/C: 108 % of control
[3]
  T/C: 103 % of control and 107 % of control
[4]
  T/C: 114 % of control and 120 % of control
[5]
  T/C: 107 % of control and 123 % of control
dose: 400.0 mg/kg/injection, schedule: Q01DX009 (ip), vehicle: saline with Tween-80
  T/C: 113 % of control and 120 % of control
dose: 600.0 mg/kg/injection, schedule: Q01DX009 (ip), vehicle: saline with Tween-80
  T/C: 123 % of control

## COCc1c(-c2ccccc2)nn(O)c1-c1ccccc1
dose: 50.0 mg/kg/injection, schedule: Q01DX001 (ip), vehicle: saline with Tween-80
  T/C: 103 % of control
dose: 100.0 mg/kg/injection, schedule: Q01DX001 (ip), vehicle: saline with Tween-80
  T/C: 96 % of control
dose: 200.0 mg/kg/injection, schedule: Q01DX001 (ip), vehicle: saline with Tween-80
  T/C: 87 % of control

## N#CN=C(N)N=P(c1ccccc1)(c1ccccc1)c1ccccc1
[10]
  T/C: 97 % of control
[11]
  T/C: 100 % of control
[12]
  T/C: 91 % of control

## CC(C)CNC(=O)c1ccc(OCC(O)CNC(C)(C)C)c(Cl)c1 (configuration not stated)
dose: 100.0 mg/kg/injection, schedule: Q04DX003 (ip), vehicle: Klucel (hydroxypropylcellulose) (HPC)
  T/C: 107 % of control
dose: 200.0 mg/kg/injection, schedule: Q04DX003 (ip), vehicle: Klucel (hydroxypropylcellulose) (HPC)
  T/C: 102 % of control

## Nc1ccc(S(=O)(=O)c2cc(O)c3ccccc3c2O)cc1
[8]
  T/C: 104 % of control

## CCCCCC(=O)C1C(c2ccc(C)cc2)CC(=O)C(CCCC)C1c1ccc(C)cc1 (configuration not stated)
[6]
  T/C: 93 % of control
[9]
  T/C: 93 % of control
[7]
  T/C: 93 % of control

## CC1=CC[C@@H]2C(C#N)C3(CCC12C)OCCO3 (some centres not stated)
[6]
  T/C: 92 % of control
[9]
  T/C: 94 % of control
[7]
  T/C: 94 % of control

## CN=C(N)NN
dose: 25.0 mg/kg/injection, schedule: Q01DX009 (ip), vehicle: saline
  T/C: 101 % of control
dose: 50.0 mg/kg/injection, schedule: Q01DX009 (ip), vehicle: saline
  T/C: 97 % of control
[13]
  T/C: 93 % of control
dose: 200.0 mg/kg/injection, schedule: Q01DX009 (ip), vehicle: saline
  T/C: 97 % of control

## COc1cc(OC)c(NC(=O)N(NC(=O)NNc2ccccc2)c2ccccc2)cc1Cl
dose: 50.0 mg/kg/injection, schedule: Q01DX005 (ip), vehicle: Klucel (hydroxypropylcellulose) (HPC)
  T/C: 100 % of control
dose: 100.0 mg/kg/injection, schedule: Q01DX005 (ip), vehicle: Klucel (hydroxypropylcellulose) (HPC)
  T/C: 100 % of control
dose: 200.0 mg/kg/injection, schedule: Q01DX005 (ip), vehicle: Klucel (hydroxypropylcellulose) (HPC)
  T/C: 95 % of control

## NC(=O)CCSC1=CC(=O)c2ccccc2C1=O
dose: 3.13 mg/kg/injection, schedule: Q04DX003 (ip), vehicle: saline with Tween-80
  T/C: 103 % of control
dose: 6.25 mg/kg/injection, schedule: Q04DX003 (ip), vehicle: saline with Tween-80
  T/C: 110 % of control
dose: 12.5 mg/kg/injection, schedule: Q04DX003 (ip), vehicle: saline with Tween-80
  T/C: 103 % of control and 110 % of control

## NC(=O)N=Nc1c(F)c(F)c(F)c(F)c1F
dose: 6.25 mg/kg/injection, schedule: Q01DX005 (ip), vehicle: saline with Tween-80
  T/C: 103 % of control
dose: 12.5 mg/kg/injection, schedule: Q01DX005 (ip), vehicle: saline with Tween-80
  T/C: 106 % of control
dose: 25.0 mg/kg/injection, schedule: Q01DX005 (ip), vehicle: saline with Tween-80
  T/C: 116 % of control
[6]
  T/C: 116 % of control
[9]
  T/C: 113 % of control

## CCCCc1cc(-c2ccc(C)cc2)c(CCCC)c2c1-c1cccc3cccc-2c13
[16]
  T/C: 98 % of control
dose: 200.0 mg/kg/injection, schedule: Q04DX003 (ip), vehicle: saline with Tween-80
  T/C: 91 % of control
dose: 400.0 mg/kg/injection, schedule: Q04DX003 (ip), vehicle: saline with Tween-80
  T/C: 92 % of control

## c1cc2c3c(c1)nc(CCCc1nc4cccc5c4n1CCC5)n3CCC2
[14]
  T/C: 95 % of control
[15]
  T/C: 86 % of control
[16]
  T/C: 90 % of control

— PubChem BioAssay AID330 (DTP/NCI, 2004)
